pIC50: −log10 of the molar value. Structures can show the parent of a compound that is named as a salt.
Columns and labels:
[1] = biological target: hERG potassium ion channels (Homo sapiens (Human), UniProt Q12809); assay: Experiment 4: hERG potassium ion channel inhibition, automated patch clamp (Qpatch), CHO-hERG cells; type: cell-based; conditions: highest test concentration 40 μM
Summary of the method: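 Whole-cell automated patch clamp on CHO-hERG cells held at −80 mV: 50 ms −50 mV prepulse, 5 s +40 mV step, 5 s repolarization to −50 mV, every 15 s. Six final concentrations from 0.165 to 40 μM applied ascending, 2.5 min each; n≥3 cells per concentration.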

[2] = test system: human small cell lung cancer NCI-H1417 cell subcutaneous xenograft tumor; assay: Experiment 5: in vivo pharmacodynamic study, NCI-H1417 subcutaneous xenograft tumor in CB17-SCID mice; conditions: p.o.; for Mean tumor volume ± SEM (mm^3) (Day 28): day 28 after administration; for TGI (%): tumor volume at day 28
From the text: Experiment 5: In Vivo Pharmacodynamic Study of Compounds on CB17-SCID Mouse Model of Human Small Cell Lung Cancer NCI-H1417 Cell Subcutaneous Xenograft Tumor
The purpose of this experiment was to evaluate the in vivo efficacy of the compounds of the present disclosure on CB17-SCID mouse model of human small cell lung cancer NCI-H1417 cell subcutaneous xenograft tumor.
5.2 Experimental Animals: • Species: mice • Strain: CB17-SCID mice • Week age and weight: 6-8 weeks old, 18 to 22 grams • Gender: Female • Supplier: Beijing Vital River Laboratory Animal Technology Co., Ltd.
Human lung cancer cells NCI-H1417 were cultured in vitro in suspension in RPMI 1640 medium with 10% fetal bovine serum, 100 U/mL penicillin, and 100 μg/mL streptomycin at 37° C. in a 5% CO2 cell culture incubator. Routine digestion and passage treatment were performed twice a week. When the number of cells reached the required number, the cells were counted and resuspended in PBS at a density of 10×10^6 cells/200 μL.
0.2 mL of NCI-H1417 tumor cells (containing 10×10^6 cells) suspension (PBS: matrix gel=1:1) was subcutaneously inoculated on the right back of mice, and in pharmacodynamic experiments, on the 16th day after cell inoculation, when the average tumor volume reached 86 mm^3, the subjects were randomly grouped and the administration started.
The experimental vehicle was 5% dimethyl sulfoxide/95% (10% Solutol) solution. Preparation method: 3.8 mL of […] was taken and added to 34.2 mL of double-distilled water, 2 mL of dimethyl sulfoxide was added thereto, and the mixture was mixed well. The test substance was dissolved with the vehicle, prepared as a homogeneous solution of a certain concentration, and stored at 4° C.
The experimental indicator was to examine whether tumor growth was inhibited, delayed, or cured. The tumor diameter was measured twice a week using vernier calipers. The calculation formula of tumor volume is V=0.5a×b^2, wherein a and b represent the long and short diameters of the tumor respectively.
The tumor inhibitory efficacy of compounds was evaluated by TGI (%). TGI (%) reflects the tumor growth inhibition rate. Calculation of TGI (%): TGI (%)=[1−(Average tumor volume at the end of administration in a certain treatment group−Average tumor volume at the beginning of administration in this treatment group)/(Average tumor volume at the end of treatment in the vehicle control group−Average tumor volume at the beginning of treatment in the vehicle control group)]×100%.

[3] = Experiment 3: pharmacokinetic evaluation in CD-1 mice (IV and oral); type: in vivo; conditions: mouse, plasma, male CD-1 mice; for clearance / half-life / Vd: IV 1 mg/kg; for clearance: read-out: Clearance rate CL; for half-life: read-out: Half life T1/2 (IV, h) (converted); for Vd: read-out: Volume of distribution at steady state Vdss; for bioavailability: PO 2 mg/kg vs IV 1 mg/kg, read-out: Bioavailability F (%); for AUC(0-t): PO 2 mg/kg, read-out: Area under drug-time curve AUC0-last PO; for Cmax: single dose, oral 2 mg/kg, read-out: Peak concentration Cmax
Summary of the method: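 Male/female CD-1 mice aged 7-9 weeks, two per route, received single doses of 1 mg/kg IV or 2 mg/kg oral gavage in 10% DMSO/90% of 10% HP-β-cyclodextrin. Plasma was sampled from 0.083 (IV) or 0.25 (PO) to 24 h. Methanol-precipitated samples were measured by LC-MS/MS to derive Cmax, CL, T1/2, Vdss, AUC0-last and F.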

Chain of hERG potassium ion channels (Q12809 whole entry): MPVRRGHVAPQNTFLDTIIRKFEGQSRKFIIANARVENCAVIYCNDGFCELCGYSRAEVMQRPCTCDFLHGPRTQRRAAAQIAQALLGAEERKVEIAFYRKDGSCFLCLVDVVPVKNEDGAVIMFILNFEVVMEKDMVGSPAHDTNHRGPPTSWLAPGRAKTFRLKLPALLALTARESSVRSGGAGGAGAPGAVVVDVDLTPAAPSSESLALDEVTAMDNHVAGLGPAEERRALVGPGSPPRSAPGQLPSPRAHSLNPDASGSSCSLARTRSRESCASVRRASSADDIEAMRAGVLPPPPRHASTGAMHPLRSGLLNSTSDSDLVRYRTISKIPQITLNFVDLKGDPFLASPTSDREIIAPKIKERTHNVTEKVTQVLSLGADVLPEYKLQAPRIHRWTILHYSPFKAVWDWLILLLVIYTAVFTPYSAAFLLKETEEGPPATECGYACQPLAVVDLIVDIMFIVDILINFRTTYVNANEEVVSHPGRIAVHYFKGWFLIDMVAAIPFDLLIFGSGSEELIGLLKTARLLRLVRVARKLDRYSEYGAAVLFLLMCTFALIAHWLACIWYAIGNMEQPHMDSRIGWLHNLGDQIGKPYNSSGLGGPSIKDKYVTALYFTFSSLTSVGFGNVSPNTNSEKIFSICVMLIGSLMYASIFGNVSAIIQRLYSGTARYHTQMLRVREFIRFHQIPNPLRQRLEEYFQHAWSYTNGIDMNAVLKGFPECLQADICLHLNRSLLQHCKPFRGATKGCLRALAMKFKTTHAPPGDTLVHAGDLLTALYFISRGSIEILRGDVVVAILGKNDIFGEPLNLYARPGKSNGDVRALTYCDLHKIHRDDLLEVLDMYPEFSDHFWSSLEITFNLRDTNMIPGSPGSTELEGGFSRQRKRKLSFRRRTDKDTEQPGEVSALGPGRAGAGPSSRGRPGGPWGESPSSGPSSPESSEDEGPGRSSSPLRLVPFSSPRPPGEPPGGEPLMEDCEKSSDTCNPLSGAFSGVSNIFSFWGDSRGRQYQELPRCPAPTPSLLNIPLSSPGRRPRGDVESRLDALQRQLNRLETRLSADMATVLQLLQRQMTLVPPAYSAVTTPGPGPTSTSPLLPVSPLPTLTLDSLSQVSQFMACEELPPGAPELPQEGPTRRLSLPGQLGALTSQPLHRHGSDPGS

CC(C)(CO)n1cc2cc(-c3sc(C(=O)N4CCC[C@@H](N)C4)cc3-c3ccc(C#N)c(F)c3)ccc2n1 [Hydrochloride of compound 87]
pIC50 [1]: 4.87
Mean tumor volume ± SEM (mm^3) (Day 28) ([2]; 30 mg/kg, BID): 67 ± 5 mm^3
TGI (%) ([2]; 30 mg/kg, BID): 105.17%
clearance [3]: 25.7 mL/min/kg
half-life [3]: 1.54 h
Vd [3]: 3.13 L/kg
bioavailability [3]: 41.1%
AUC(0-t) [3]: 1.01 µM·h
Cmax [3]: 267 nM

CN[C@@H]1CCCN(C(=O)c2cc(-c3ccc(C#N)c(F)c3)c(-c3cc4nnn(CC(C)(C)O)c4c(F)c3F)s2)C1 [Hydrochloride of compound 98]
pIC50 [1]: 4.73
Mean tumor volume ± SEM (mm^3) (Day 28) ([2]; 5 mg/kg, BID): 34 ± 1 mm^3
TGI (%) ([2]; 5 mg/kg, BID): 114.20%
Mean tumor volume ± SEM (mm^3) (Day 28) ([2]; 5 mg/kg, QD): 44 ± 2 mm^3
TGI (%) ([2]; 5 mg/kg, QD): 111.58%
Mean tumor volume ± SEM (mm^3) (Day 28) ([2]; 10 mg/kg, QD): 38 ± 3 mm^3
TGI (%) ([2]; 10 mg/kg, QD): 113.35%
clearance [3]: 45.3 mL/min/kg
half-life [3]: 2.28 h
Vd [3]: 6.94 L/kg
bioavailability [3]: 58.6%
AUC(0-t) [3]: 0.708 µM·h
Cmax [3]: 160 nM
